From ChEMBL document CHEMBL1938343, “Lead optimisation of selective non-zinc binding inhibitors of MMP13. Part 2” (Bioorg Med Chem Lett, 2012) come the findings set out here.

One series addresses Collagenase 3 (Homo sapiens, UniProt P45452). Briefly: Inhibition of recombinant human MMP13 using Mca-Pro-cyclohexyl-Ala-Gly-Nva-His-Ala- Dap(Dnp)-NH2 as substrate by fluorometric analysis. To be noted: read-out: pIC50 (converted).
For series [1], the target named is 72 kDa type IV collagenase (Homo sapiens, UniProt P08253). Briefly: Inhibition of MMP2 using Mca-Pro-cyclohexyl-Ala-Gly-Nva-His-Ala- Dap(Dnp)-NH2 as substrate by fluorometric analysis. To be noted: read-out: pIC50 (converted).
Sequence of 72 kDa type IV collagenase (P08253 whole entry): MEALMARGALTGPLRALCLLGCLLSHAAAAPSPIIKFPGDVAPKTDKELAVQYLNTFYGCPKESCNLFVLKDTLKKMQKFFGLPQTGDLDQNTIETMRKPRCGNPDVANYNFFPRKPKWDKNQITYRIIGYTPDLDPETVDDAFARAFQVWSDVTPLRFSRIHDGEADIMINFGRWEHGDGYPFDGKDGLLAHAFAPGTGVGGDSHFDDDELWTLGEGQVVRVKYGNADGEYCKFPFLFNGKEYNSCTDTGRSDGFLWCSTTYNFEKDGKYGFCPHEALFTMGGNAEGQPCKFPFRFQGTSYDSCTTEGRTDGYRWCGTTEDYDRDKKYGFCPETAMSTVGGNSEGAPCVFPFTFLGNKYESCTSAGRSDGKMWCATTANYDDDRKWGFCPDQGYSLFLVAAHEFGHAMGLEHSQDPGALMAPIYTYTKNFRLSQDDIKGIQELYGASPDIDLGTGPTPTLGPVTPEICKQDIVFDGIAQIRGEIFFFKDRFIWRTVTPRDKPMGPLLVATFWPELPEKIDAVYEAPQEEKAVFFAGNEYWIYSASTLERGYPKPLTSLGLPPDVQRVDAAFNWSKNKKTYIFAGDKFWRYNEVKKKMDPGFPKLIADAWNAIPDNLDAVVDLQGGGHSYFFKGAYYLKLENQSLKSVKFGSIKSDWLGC
Series [2] in a line: Intrinsic clearance in human microsomes. Format: ADME, Microsome.
Series [3] concerns the target MMP-2/MMP-13 (Homo sapiens) (UniProt P08253+P45452). Briefly: Selectivity ratio of pIC50 for MMP2 to pIC50 for recombinant human MMP13.
Series [4] can be described thus: Apparent permeability across basolateral to apical side in human Caco2 cells at 10 uM. Format: ADME, cell-based. To be noted: Caco-2. On the technique in general: Passage across Caco-2 layers is used to estimate intestinal permeability.
Series [5] is described as follows: Oral bioavailability in rat. It counts as ADME, organism-based. To be noted: in vivo.
Series [6] is described as follows: Apparent permeability across apical to basolateral side in human Caco2 cells at 10 uM. It counts as ADME, cell-based. To be noted: Caco-2.
In series [7] the target is Matrix metalloproteinase-9 (Homo sapiens, UniProt P14780). Description: Inhibition of MMP9 using Mca-Pro-cyclohexyl-Ala-Gly-Nva-His-Ala- Dap(Dnp)-NH2 as substrate by fluorometric analysis. To be noted: read-out: pIC50 (converted).
Sequence of Matrix metalloproteinase-9 (P14780 whole entry): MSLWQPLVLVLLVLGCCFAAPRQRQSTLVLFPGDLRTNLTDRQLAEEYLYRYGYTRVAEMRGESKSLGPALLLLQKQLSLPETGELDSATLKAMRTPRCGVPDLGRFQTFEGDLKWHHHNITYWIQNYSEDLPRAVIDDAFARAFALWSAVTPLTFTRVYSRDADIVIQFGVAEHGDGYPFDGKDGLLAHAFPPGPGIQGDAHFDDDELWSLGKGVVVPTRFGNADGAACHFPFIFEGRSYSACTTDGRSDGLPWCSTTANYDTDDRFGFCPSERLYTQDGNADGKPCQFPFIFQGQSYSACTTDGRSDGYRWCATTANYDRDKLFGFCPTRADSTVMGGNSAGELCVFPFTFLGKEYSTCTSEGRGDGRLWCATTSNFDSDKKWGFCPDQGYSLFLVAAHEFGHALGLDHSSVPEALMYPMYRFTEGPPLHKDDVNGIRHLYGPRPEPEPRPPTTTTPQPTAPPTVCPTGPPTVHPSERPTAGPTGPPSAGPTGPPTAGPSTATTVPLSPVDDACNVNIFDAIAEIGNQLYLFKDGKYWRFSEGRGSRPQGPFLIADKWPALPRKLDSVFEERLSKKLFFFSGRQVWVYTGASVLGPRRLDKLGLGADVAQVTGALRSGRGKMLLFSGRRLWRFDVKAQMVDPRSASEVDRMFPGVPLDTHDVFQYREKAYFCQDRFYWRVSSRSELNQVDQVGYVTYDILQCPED
Series [8] concerns the target Matrix metalloproteinase-14 (Homo sapiens, UniProt P50281). Briefly: Inhibition of MMP14 using Mca-Pro-cyclohexyl-Ala-Gly-Nva-His-Ala- Dap(Dnp)-NH2 as substrate by fluorometric analysis. To be noted: read-out: pIC50 (converted).
In series [9] the target is Macrophage metalloelastase (Homo sapiens, UniProt P39900). Description: Inhibition of MMP12 using Mca-Pro-cyclohexyl-Ala-Gly-Nva-His-Ala- Dap(Dnp)-NH2 as substrate by fluorometric analysis. To be noted: read-out: pIC50 (converted).
Sequence of Macrophage metalloelastase (P39900 whole entry): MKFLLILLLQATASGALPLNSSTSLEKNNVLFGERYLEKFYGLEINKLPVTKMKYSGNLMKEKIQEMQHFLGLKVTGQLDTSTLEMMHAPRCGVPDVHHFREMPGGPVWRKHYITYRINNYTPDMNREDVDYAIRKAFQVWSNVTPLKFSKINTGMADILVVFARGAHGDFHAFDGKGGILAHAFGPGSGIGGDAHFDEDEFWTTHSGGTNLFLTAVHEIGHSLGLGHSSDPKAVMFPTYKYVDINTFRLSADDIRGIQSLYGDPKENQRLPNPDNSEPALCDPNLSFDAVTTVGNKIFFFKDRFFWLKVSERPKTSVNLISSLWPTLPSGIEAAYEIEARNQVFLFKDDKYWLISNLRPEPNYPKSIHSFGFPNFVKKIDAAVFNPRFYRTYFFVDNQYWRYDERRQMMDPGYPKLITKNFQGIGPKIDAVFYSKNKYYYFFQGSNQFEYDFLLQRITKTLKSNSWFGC
A short description of series [10]: Intrinsic clearance in Sprague-Dawley rat hepatocytes assessed per 10^6 cells. Format: ADME, cell-based, Hepatocyte. To be noted: Sprague-Dawley, read-out: CLH.

Sequence of MMP-2/MMP-13 (Homo sapiens) (P08253 whole entry, looked up, other chains not shown): as the sequence (P08253 whole entry) above

Regarding `O=C(O)c1ccc(Oc2ccc(C#C[C@]3(O)CN4CCC3CC4)cc2)cc1`, the IC50 at Collagenase 3 was 5010 nM.
In general, microsomal CLint refers to a measure of how fast metabolising enzymes remove a compound, apart from limits set by blood flow. With `CS(=O)(=O)c1cccc(CNC(=O)c2ccc(Oc3ccc(C#C[C@]4(O)CN5CCC4CC5)cc3)cc2)c1`, the figures for the IC50 (at Collagenase 3; in series [1]) were 31.6 nM and 7940 nM, respectively. This compound gave a microsomal CLint in series [2] of 12.5 µL/min/mg.
As for `O=C(NCC1CCCCC1)c1ccc(Oc2ccc(C#C[C@]3(O)CN4CCC3CC4)cc2)cc1`, the IC50 is 100 nM on Collagenase 3 and 5010 nM in series [1].
In the case of `O=C(NCc1ccncc1)c1ccc(Oc2ccc(C#C[C@]3(O)CN4CCC3CC4)cc2)cc1`, in series [1], the IC50 was 6310 nM. Further, the microsomal CLint in series [2] turned out to be 10.2 µL/min/mg.
Consider `COc1ccc(CNC(=O)c2ccc(Oc3ccc(C#C[C@]4(O)CN5CCC4CC5)cc3)cc2)nc1`, for which the IC50 on Collagenase 3 is 31.6 nM; in series [1], greater than 10000 nM. The compound also yielded an intrinsic clearance (microsomal CLint) in series [2] of 5.6 µL/min/mg. Moreover, the Ratio pIC50 in series [3] was greater than 300.
What is called Papp B→A is how fast a substance crosses the layer from the basolateral side. A word on the bioavailability: it is the share of a dose that reaches the circulation, judged against a reference dose that is usually intravenous. Read a low bioavailability as little systemic uptake. Broadly, the Papp A→B is how fast a substance crosses the layer from the apical side. Regarding `Cc1cc(CN(C)C(=O)c2ccc(Oc3ccc(C#C[C@]4(O)CN5CCC4CC5)cc3)cc2)on1`, the IC50 at Collagenase 3 was 79.4 nM; in [1], 7940 nM. Besides, the Papp B→A at 10 µM in series [4] was determined as 53 ×10⁻⁶ cm/s. The same compound displayed a bioavailability in series [5] of 3%. The Papp A→B at 10 µM in series [6] turned out to be 8.2 ×10⁻⁶ cm/s. The same compound gave a microsomal CLint in [2] of 2.7 µL/min/mg.
For the compound `O=C(NC1CCN(C2CC2)CC1)c1ccc(Oc2ccc(C#C[C@]3(O)CN4CCC3CC4)cc2)cc1`, the IC50 was greater than 10000 nM in series [7]; 79.4 nM at Collagenase 3; 7940 nM in series [1]; greater than 10000 nM in series [8]; greater than 10000 nM in series [9]. Also, in series [2], the microsomal CLint was 4.7 µL/min/mg.
`CCOC(=O)c1ccc(Oc2ccc(C#C[C@]3(O)CN4CCC3CC4)cc2)cc1`: at Collagenase 3, the IC50 was 1000 nM.
As for `N#Cc1cccc(CNC(=O)c2ccc(Oc3ccc(C#C[C@]4(O)CN5CCC4CC5)cc3)cc2)c1`, the values for the IC50 (at Collagenase 3; in [1]) were 63.1 nM and greater than 10000 nM, respectively. In [2], this compound yielded a microsomal CLint of 9.9 µL/min/mg.
Take `O=C(NCc1ccc(F)cc1)c1ccc(Oc2ccc(C#C[C@]3(O)CN4CCC3CC4)cc2)cc1`: the IC50 was 100 nM at Collagenase 3 and 6310 nM in series [1].
In the case of `CN(C)C(=O)c1ccc(Oc2ccc(C#C[C@]3(O)CN4CCC3CC4)cc2)cc1`, on Collagenase 3, the IC50 is 1580 nM.
The same measure, in the same setting: the value for `CONC(=O)c1ccc(Oc2ccc(C#C[C@]3(O)CN4CCC3CC4)cc2)cc1` was 2510 nM.
Consider `O=C(NC1CCS(=O)(=O)CC1)c1ccc(Oc2ccc(C#C[C@]3(O)CN4CCC3CC4)cc2)cc1`, for which the IC50 is greater than 10000 nM in [7]; 100 nM on Collagenase 3; greater than 10000 nM in [1]; greater than 10000 nM in series [8]; greater than 10000 nM in series [9]. This compound gave a microsomal CLint in series [2] of 2.5 µL/min/mg.
With `CC(=O)Nc1ccc(Oc2ccc(C#C[C@]3(O)CN4CCC3CC4)cc2)cc1`, the IC50 at Collagenase 3 was greater than 10000 nM.
Turning to `CC(=O)N1CCC(NC(=O)c2ccc(Oc3ccc(C#C[C@]4(O)CN5CCC4CC5)cc3)cc2)CC1`, in series [10], the hepatocyte CLint was less than 2 µL/min/1e6 cells. In addition, the IC50 was greater than 10000 nM in [7]; 39.8 nM on Collagenase 3; 5010 nM in series [1]; greater than 10000 nM in series [8]; greater than 10000 nM in [9]. In [2], this compound registered a microsomal CLint of 2.5 µL/min/mg.
As for `C[S+]([O-])c1ccc(Oc2ccc(C#C[C@]3(O)CN4CCC3CC4)cc2)cc1` (stereo partly specified), the IC50 on Collagenase 3 was 398 nM.
For the compound `CN(Cc1ccncc1)C(=O)c1ccc(Oc2ccc(C#C[C@]3(O)CN4CCC3CC4)cc2)cc1`, the values for the IC50 (on Collagenase 3; in series [1]) were 251 nM and greater than 10000 nM, respectively.
For `C[C@@H](NC(=O)c1ccc(Oc2ccc(C#C[C@]3(O)CN4CCC3CC4)cc2)cc1)c1ccncc1`, the IC50 at Collagenase 3 was 12.6 nM; in [1], 3980 nM. In addition, in series [2], the microsomal CLint is 18.8 µL/min/mg. Further, in series [3], the Ratio pIC50 was greater than 300.
With `CC(C)NC(=O)c1ccc(Oc2ccc(C#C[C@]3(O)CN4CCC3CC4)cc2)cc1`, the IC50 at Collagenase 3 was 100 nM; in series [1], greater than 10000 nM.
Regarding `NC(=O)c1ccc(Oc2ccc(C#C[C@]3(O)CN4CCC3CC4)cc2)cc1`, on Collagenase 3, the IC50 is 631 nM.
As to `O=C(NC1CCS(=O)(=O)C1)c1ccc(Oc2ccc(C#C[C@]3(O)CN4CCC3CC4)cc2)cc1` (stereo partly specified), in [10], the hepatocyte CLint is less than 2 µL/min/1e6 cells. Moreover, the IC50 in [7] is greater than 10000 nM; at Collagenase 3 it was 79.4 nM; in [1], 7940 nM; in series [8], greater than 10000 nM; in [9], greater than 10000 nM. Moreover, the microsomal CLint in series [2] was less than 2 µL/min/mg.
On to `CNC(=O)N1CCC(NC(=O)c2ccc(Oc3ccc(C#C[C@]4(O)CN5CCC4CC5)cc3)cc2)CC1`, for which the IC50 in series [7] is greater than 10000 nM; at Collagenase 3, 50.1 nM; in series [1] it was 3980 nM; in series [8], greater than 10000 nM; in series [9], greater than 10000 nM. The compound further had a microsomal CLint in series [2] of less than 2 µL/min/mg.
`CS(=O)(=O)N1CCC(NC(=O)c2ccc(Oc3ccc(C#C[C@]4(O)CN5CCC4CC5)cc3)cc2)CC1`: in series [10], the hepatocyte CLint is less than 2 µL/min/1e6 cells. Besides, the IC50 in series [7] was greater than 10000 nM; at Collagenase 3, 50.1 nM; in [1], 7940 nM; in series [8] it was greater than 10000 nM; in series [9], greater than 10000 nM. In series [2], this compound gave a microsomal CLint of 2.9 µL/min/mg.
For the compound `O=C(NCc1ccccc1)c1ccc(Oc2ccc(C#C[C@]3(O)CN4CCC3CC4)cc2)cc1`, the IC50 was 63.1 nM on Collagenase 3 and 7940 nM in series [1]. Moreover, the microsomal CLint in series [2] was less than 2 µL/min/mg.
The corresponding values for `COc1ccc(CNC(=O)c2ccc(Oc3ccc(C#C[C@]4(O)CN5CCC4CC5)cc3)cc2)cc1OC` are 10 nM, 1260 nM and 2.7 µL/min/mg.
Take `O=C(NC1CCN(C(=O)C2CC2)CC1)c1ccc(Oc2ccc(C#C[C@]3(O)CN4CCC3CC4)cc2)cc1`: the IC50 in series [7] was greater than 10000 nM; on Collagenase 3, 25.1 nM; in series [1], 6310 nM; in [8], greater than 10000 nM; in [9], greater than 10000 nM. The same compound had a microsomal CLint in series [2] of 3.7 µL/min/mg.
In the case of `CS(=O)(=O)c1ccc(Oc2ccc(C#C[C@]3(O)CN4CCC3CC4)cc2)cc1`, the IC50 on Collagenase 3 is 316 nM.
Consider `CC[C@@H](C)NC(=O)c1ccc(Oc2ccc(C#C[C@]3(O)CN4CCC3CC4)cc2)cc1`, for which the IC50 on Collagenase 3 is 50.1 nM; in series [1], 6310 nM. The same compound came in with a microsomal CLint in [2] of 8.9 µL/min/mg.
Consider `O=C(Nc1ccccn1)c1ccc(Oc2ccc(C#C[C@]3(O)CN4CCC3CC4)cc2)cc1`, for which the results for the IC50 (at Collagenase 3; in series [1]) were 316 nM and greater than 10000 nM, respectively. Moreover, in series [2], the intrinsic metabolic clearance (microsomal CLint) was less than 2 µL/min/mg.
As for `O=C(NC1CCCCC1)c1ccc(Oc2ccc(C#C[C@]3(O)CN4CCC3CC4)cc2)cc1`, the IC50 on Collagenase 3 is 25.1 nM; in [1], greater than 10000 nM. The intrinsic clearance (microsomal CLint) in series [2] amounted to 2.9 µL/min/mg.
In the case of `CS(=O)(=O)Oc1cccc(CNC(=O)c2ccc(Oc3ccc(C#C[C@]4(O)CN5CCC4CC5)cc3)cc2)c1`, the IC50 at Collagenase 3 is 63.1 nM; in series [1], 7940 nM. In series [2], this compound gave a microsomal CLint of 8.6 µL/min/mg.
As for `CNS(=O)(=O)c1ccc(Oc2ccc(C#C[C@]3(O)CN4CCC3CC4)cc2)cc1`, the IC50 at Collagenase 3 was 100 nM.
Take `COc1ccc(CNC(=O)c2ccc(Oc3ccc(C#C[C@]4(O)CN5CCC4CC5)cc3)cc2)c(OC)c1`: the IC50 at Collagenase 3 is 39.8 nM; in series [1], 6310 nM. Further, the microsomal CLint in series [2] was determined as 16.1 µL/min/mg.
In the case of `COc1cc(CNC(=O)c2ccc(Oc3ccc(C#C[C@]4(O)CN5CCC4CC5)cc3)cc2)cc(OC)c1`, the IC50 on Collagenase 3 was 50.1 nM; in series [1] it was 7940 nM. Also, in series [2], the microsomal CLint was 4.8 µL/min/mg.
Consider `OCc1ccc(Oc2ccc(C#C[C@]3(O)CN4CCC3CC4)cc2)cc1`, for which the IC50 on Collagenase 3 is greater than 10000 nM.
Consider `COc1cccc(CNC(=O)c2ccc(Oc3ccc(C#C[C@]4(O)CN5CCC4CC5)cc3)cc2)c1`, for which the results for the IC50 (at Collagenase 3; in [1]) were 79.4 nM and greater than 10000 nM, respectively. The compound also had a microsomal CLint in series [2] of 10.9 µL/min/mg.
On to `CS(=O)(=O)Nc1ccc(Oc2ccc(C#C[C@]3(O)CN4CCC3CC4)cc2)cc1`, for which the IC50 at Collagenase 3 was 2510 nM.
Turning to `O=C(NCc1ccnc2ccccc12)c1ccc(Oc2ccc(C#C[C@]3(O)CN4CCC3CC4)cc2)cc1`, the IC50 on Collagenase 3 was 20 nM; in series [1] it was 2000 nM. Besides, in series [2], the microsomal CLint was 26.1 µL/min/mg.
